From patent US6395896B2, “Pyridazine derivatives, manufacturing method and related composition” (Shiseido Co., Ltd., priority 1999, dated 2002)

Key:
[1] = Drug stabilization effect (photostabilizer, sunlight exposure); design: key to Sunlight exposure (80 MJ) Appearance: A: No change; B: No almost change; C: Yes change; conditions: photostabilizer 0.05, amounts wt %
Method: Next, the photo stabilization effect and changes in appearance in drug compositions were studied according to the following evaluation formulation.
Each test sample was prepared. Appearance changes of the samples exposed to sunlight (80 MJ) was observed (visual evaluation). Also, residual yield was measured by liquid chromatography.

[2] = Perfume stabilization effect (photostabilizer, sunlight exposure, judgement by perfumier); design: key to Sunlight exposure (80 MJ) Smell evaluation / Sunlight exposure (80 MJ) evaluation: A: No change; B: No almost change; C: Yes change
Method: Next, the photostabilization effect for each perfume was studied by the following evaluation formulation.
Each test sample was prepared. Change of smell of sample exposed to sunlight (80 MJ) was observed (judgement by perfumier).

[3] = Colorant stabilization effect (photostabilizer, sunlight exposure); design: key to Sunlight exposure (80 MJ) Appearance: A: No change; B: No almost change; C: Yes change; key to Sunlight exposure (80 MJ) ΔE: ΔE color difference (Lab) vs. color before sunlight exposure; conditions: photostabilizer 0.05 wt %
Method: First of all, the photostabilization effect and appearance change of a composition in each pigment were studied by the following evaluation formulation.
Each test sample was prepared. Observation of appearance change (visual evaluation) and measurement of color difference (ΔE) were carried out in samples exposed to sunlight exposure (around 80 MJ).
Color difference was measured by Lab coordinate system with spectrophotometer. Color difference was calculated on the basis of the color before sunlight exposure. Namely, from measured value (L1,a1,b1) before sunlight exposure, color difference (ΔE) was calculated by following formula.

[4] = drug 2-o-α-α-glucopyranosyl-L-ascorbic acid 2.0
[5] = drug Dibutylhydroxytoluene 0.01
[6] = drug Dipotassium glycyrrhizinate 0.05
[7] = drug L-ascorbic acid 2-(dl-α-tocopheryl hydrogen phosphate) potassium salt 0.01
[8] = Base perfume Fruity 0.03 wt %, photostabilizer 0.1 wt %
[9] = Base perfume Muguet 0.03 wt %, photostabilizer 0.05 wt %
[10] = Base perfume Rose 0.03 wt %, photostabilizer 0.05 wt %
[11] = Base perfume Spicy 0.03 wt %, photostabilizer 0.2 wt %
[12] = Base perfume Woody 0.03 wt %, photostabilizer 0.1 wt %
[13] = Natural perfume Jasmine oil 0.03 wt %, photostabilizer 0.05 wt %
[14] = Natural perfume Lavender oil 0.03 wt %, photostabilizer 0.1 wt %
[15] = Natural perfume Neroli oil 0.03 wt %, photostabilizer 0.1 wt %
[16] = Natural perfume Rose oil 0.03 wt %, photostabilizer 0.05 wt %
[17] = Natural perfume Ylang ylang oil 0.03 wt %, photostabilizer 0.2 wt %
[18] = Synthetic perfume Citral 0.03 wt %, photostabilizer 0.1 wt %
[19] = Synthetic perfume Limonene 0.03 wt %, photostabilizer 0.05 wt %
[20] = Synthetic perfume Linalool 0.03 wt %, photostabilizer 0.05 wt %
[21] = Synthetic perfume Linalyl acetate 0.03 wt %, photostabilizer 0.1 wt %
[22] = Synthetic perfume Rose oxide 0.03 wt %, photostabilizer 0.2 wt %
[23] = Red No. 106 0.00001 wt % + Yellow No. 5 0.0001 wt %
[24] = Red No. 106 0.00001 wt % + Yellow No. 203 0.0001 wt %
[25] = Red No. 213 0.00001 wt % + Blue No. 1 0.00001 wt %
[26] = Red No. 227 0.0001 wt % + Yellow No. 5 0.0001 wt %
[27] = Red No. 227 0.0001 wt % + Yellow No. 203 0.0001 wt %
[28] = Red No. 401 0.0001 wt % + Blue No. 1 0.00001 wt %
[29] = Red No. 401 0.0001 wt % + Green No. 3 0.00001 wt %
[30] = Yellow No. 203 0.0001 wt % + Yellow No. 5 0.0001 wt %

## COc1ccc(C(=O)CC(=O)c2ccc(C(C)(C)C)cc2)cc1 [4-tert-Butyl-4′-methoxy-di-benzoylmethane, reference compound]
[1]; [4]
  Sunlight exposure (80 MJ) Appearance: B
  Sunlight exposure (80 MJ) Residual yield [%]: 97.0%
[1]; [5]
  Sunlight exposure (80 MJ) Appearance: B
  Sunlight exposure (80 MJ) Residual yield [%]: 95.2%
[1]; [6]
  Sunlight exposure (80 MJ) Appearance: B
  Sunlight exposure (80 MJ) Residual yield [%]: 96.6%
[1]; [7]
  Sunlight exposure (80 MJ) Appearance: B
  Sunlight exposure (80 MJ) Residual yield [%]: 94.5%
[1]; drug Salicylic acid 0.1
  Sunlight exposure (80 MJ) Appearance: B
  Sunlight exposure (80 MJ) Residual yield [%]: 97.2%
[2]; [8]
  Sunlight exposure (80 MJ) Smell evaluation: B
[2]; [9]
  Sunlight exposure (80 MJ) Smell evaluation: B
[2]; [10]
  Sunlight exposure (80 MJ) Smell evaluation: B
[2]; [11]
  Sunlight exposure (80 MJ) Smell evaluation: B
[2]; [12]
  Sunlight exposure (80 MJ) Smell evaluation: B
[2]; [13]
  Sunlight exposure (80 MJ) Smell evaluation: B
[2]; [14]
  Sunlight exposure (80 MJ) Smell evaluation: B
[2]; [15]
  Sunlight exposure (80 MJ) Smell evaluation: B
[2]; [16]
  Sunlight exposure (80 MJ) Smell evaluation: B
[2]; [17]
  Sunlight exposure (80 MJ) Smell evaluation: B
[2]; [18]
  Sunlight exposure (80 MJ) Smell evaluation: B
[2]; [19]
  Sunlight exposure (80 MJ) Smell evaluation: B
[2]; [20]
  Sunlight exposure (80 MJ) Smell evaluation: B
[2]; [21]
  Sunlight exposure (80 MJ) Smell evaluation: B
[2]; [22]
  Sunlight exposure (80 MJ) Smell evaluation: B
[3]; Blue No. 1 0.0001 wt %
  Sunlight exposure (80 MJ) Appearance: B
  Sunlight exposure (80 MJ) ΔE: 1.49
[3]; Green No. 3 0.0001 wt %
  Sunlight exposure (80 MJ) Appearance: B
  Sunlight exposure (80 MJ) ΔE: 0.62
[3]; [23]
  Sunlight exposure (80 MJ) Appearance: B
  Sunlight exposure (80 MJ) ΔE: 0.92
[3]; [24]
  Sunlight exposure (80 MJ) Appearance: B
  Sunlight exposure (80 MJ) ΔE: 1.02
[3]; Red No. 106 0.0001 wt %
  Sunlight exposure (80 MJ) Appearance: B
  Sunlight exposure (80 MJ) ΔE: 1.02
[3]; [25]
  Sunlight exposure (80 MJ) Appearance: B
  Sunlight exposure (80 MJ) ΔE: 1.17
[3]; Red No. 213 0.0001 wt %
  Sunlight exposure (80 MJ) Appearance: B
  Sunlight exposure (80 MJ) ΔE: 1.02
[3]; [26]
  Sunlight exposure (80 MJ) Appearance: B
  Sunlight exposure (80 MJ) ΔE: 0.80
[3]; [27]
  Sunlight exposure (80 MJ) Appearance: B
  Sunlight exposure (80 MJ) ΔE: 1.12
[3]; Red No. 227 0.0001 wt %
  Sunlight exposure (80 MJ) Appearance: B
  Sunlight exposure (80 MJ) ΔE: 0.95
[3]; [28]
  Sunlight exposure (80 MJ) Appearance: B
  Sunlight exposure (80 MJ) ΔE: 0.93
[3]; [29]
  Sunlight exposure (80 MJ) Appearance: B
  Sunlight exposure (80 MJ) ΔE: 0.99
[3]; Red No. 401 0.001 wt %
  Sunlight exposure (80 MJ) Appearance: B
  Sunlight exposure (80 MJ) ΔE: 1.02
[3]; Yellow No. 5 0.001 wt %
  Sunlight exposure (80 MJ) Appearance: B
  Sunlight exposure (80 MJ) ΔE: 0.88
[3]; [30]
  Sunlight exposure (80 MJ) Appearance: A
  Sunlight exposure (80 MJ) ΔE: 0.48
[3]; Yellow No. 203 0.001 wt %
  Sunlight exposure (80 MJ) Appearance: B
  Sunlight exposure (80 MJ) ΔE: 0.68

## COc1ccc(C(=O)c2ccccc2)c(O)c1 [2-Hydroxy-4-methoxybenzophenone, reference compound]
[1]; [4]
  Sunlight exposure (80 MJ) Appearance: B
  Sunlight exposure (80 MJ) Residual yield [%]: 97.3%
[1]; [5]
  Sunlight exposure (80 MJ) Appearance: B
  Sunlight exposure (80 MJ) Residual yield [%]: 95.2%
[1]; [6]
  Sunlight exposure (80 MJ) Appearance: B
  Sunlight exposure (80 MJ) Residual yield [%]: 97.8%
[1]; [7]
  Sunlight exposure (80 MJ) Appearance: B
  Sunlight exposure (80 MJ) Residual yield [%]: 95.4%
[1]; drug Salicylic acid 0.1
  Sunlight exposure (80 MJ) Appearance: B
  Sunlight exposure (80 MJ) Residual yield [%]: 98.2%
[2]; [8]
  Sunlight exposure (80 MJ) Smell evaluation: B
[2]; [9]
  Sunlight exposure (80 MJ) Smell evaluation: B
[2]; [10]
  Sunlight exposure (80 MJ) Smell evaluation: B
[2]; [11]
  Sunlight exposure (80 MJ) Smell evaluation: B
[2]; [12]
  Sunlight exposure (80 MJ) Smell evaluation: B
[2]; [13]
  Sunlight exposure (80 MJ) Smell evaluation: B
[2]; [14]
  Sunlight exposure (80 MJ) Smell evaluation: B
[2]; [15]
  Sunlight exposure (80 MJ) Smell evaluation: B
[2]; [16]
  Sunlight exposure (80 MJ) Smell evaluation: B
[2]; [17]
  Sunlight exposure (80 MJ) Smell evaluation: B
[2]; [18]
  Sunlight exposure (80 MJ) Smell evaluation: B
[2]; [19]
  Sunlight exposure (80 MJ) Smell evaluation: B
[2]; [20]
  Sunlight exposure (80 MJ) Smell evaluation: B
[2]; [21]
  Sunlight exposure (80 MJ) Smell evaluation: B
[2]; [22]
  Sunlight exposure (80 MJ) Smell evaluation: B
[3]; Blue No. 1 0.0001 wt %
  Sunlight exposure (80 MJ) Appearance: B
  Sunlight exposure (80 MJ) ΔE: 1.76
[3]; Green No. 3 0.0001 wt %
  Sunlight exposure (80 MJ) Appearance: B
  Sunlight exposure (80 MJ) ΔE: 0.75
[3]; [23]
  Sunlight exposure (80 MJ) Appearance: B
  Sunlight exposure (80 MJ) ΔE: 1.18
[3]; [24]
  Sunlight exposure (80 MJ) Appearance: B
  Sunlight exposure (80 MJ) ΔE: 1.11
[3]; Red No. 106 0.0001 wt %
  Sunlight exposure (80 MJ) Appearance: B
  Sunlight exposure (80 MJ) ΔE: 1.01
[3]; [25]
  Sunlight exposure (80 MJ) Appearance: B
  Sunlight exposure (80 MJ) ΔE: 1.26
[3]; Red No. 213 0.0001 wt %
  Sunlight exposure (80 MJ) Appearance: B
  Sunlight exposure (80 MJ) ΔE: 1.34
[3]; [26]
  Sunlight exposure (80 MJ) Appearance: B
  Sunlight exposure (80 MJ) ΔE: 0.88
[3]; [27]
  Sunlight exposure (80 MJ) Appearance: B
  Sunlight exposure (80 MJ) ΔE: 1.05
[3]; Red No. 227 0.0001 wt %
  Sunlight exposure (80 MJ) Appearance: B
  Sunlight exposure (80 MJ) ΔE: 0.71
[3]; [28]
  Sunlight exposure (80 MJ) Appearance: B
  Sunlight exposure (80 MJ) ΔE: 0.82
[3]; [29]
  Sunlight exposure (80 MJ) Appearance: B
  Sunlight exposure (80 MJ) ΔE: 1.06
[3]; Red No. 401 0.001 wt %
  Sunlight exposure (80 MJ) Appearance: B
  Sunlight exposure (80 MJ) ΔE: 1.18
[3]; Yellow No. 5 0.001 wt %
  Sunlight exposure (80 MJ) Appearance: B
  Sunlight exposure (80 MJ) ΔE: 0.82
[3]; [30]
  Sunlight exposure (80 MJ) Appearance: A
  Sunlight exposure (80 MJ) ΔE: 0.52
[3]; Yellow No. 203 0.001 wt %
  Sunlight exposure (80 MJ) Appearance: B
  Sunlight exposure (80 MJ) ΔE: 0.88
